Test results from article doi:10.1101/2021.04.29.441652v1 (biorxiv, 2021).

Biological target: human σ2 receptor (TMEM97) (Homo sapiens, UniProt Q5BJF2)
Assay: biochemical
Format: Expi293 membranes
Settings: read-out: % of control remaining

Sequence of human σ2 receptor (TMEM97) (Q5BJF2 whole entry): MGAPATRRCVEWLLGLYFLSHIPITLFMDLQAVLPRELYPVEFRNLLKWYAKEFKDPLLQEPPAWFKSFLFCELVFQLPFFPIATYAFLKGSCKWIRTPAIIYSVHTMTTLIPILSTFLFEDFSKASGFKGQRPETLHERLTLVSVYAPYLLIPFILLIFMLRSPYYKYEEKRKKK

| Structure (SMILES) | remaining activity at 1 µM [%] |
| --- | --- |
| CCCN(C)C[C@H]1CCN([C@H](C)C(=O)c2c[nH]c3ncccc23)C1 [ZINC000271284821] | 28.3 |
| Cc1c(Br)cccc1C(=O)N1CC[C@@H]2CCN(C)C[C@H]21 [ZINC000272592294] | 79.1 |
| CN1CCC(C)(CNC(=O)Nc2ccc(Br)nc2)CC1 [ZINC000272631760] | 91.2 |
| CC[C@@]1(C)Oc2ccc(NC(=O)C(=O)NC[C@@H]3CCN(C)C3)cc2O1 [ZINC000276781830] | 97.6 |
| COCCOc1ccc(NC(=O)C(=O)N2C[C@H]3CN(C)C[C@H]3C2)cn1 [ZINC000279187431] | 105 |
| Cc1noc(C)c1CNC(=O)C(=O)N1CCN(C2CCCC2)CC1 [ZINC000283462313] | 98.5 |
| COc1ccc(-c2ccccc2)cc1CNCCC1(O)CCOCC1 [ZINC000285662957] | 17.5 |
| CCc1cccc(C)c1NC(=O)CN1C[C@@H](N2CCCC2)C[C@H]1C [ZINC000285725404] | 115 |
| CNC(=O)CC[C@H]1CCCCN1Cc1cc(-c2ccccc2)on1 [ZINC000286502332] | 139 |
| COC(=O)c1cccc(S(=O)(=O)N2CC[C@@H](N3CCCC3)[C@@H]2C)c1 [ZINC000286616311] | 75 |
| CCc1nn(C)c(Cl)c1C(=O)N1CC[C@@H](N2CCNCC2)C1 [ZINC000286782676] | 132 |
| Cc1c(CNC(=O)C(=O)N2CC[C@@H](C3CCN(C)CC3)C2)cnn1C [ZINC000287105318] | 117 |
| O[C@H]1c2ccccc2C[C@H]1N1Cc2cccc(Cl)c2C1 [ZINC000287374567] | 114 |
| COC(=O)C[C@H]1CCCN1C[C@@H](O)Cc1cccc(Cl)c1 [ZINC000287581634] | 111 |
| C[C@@H]1COCC[C@@H]1NCCc1c[nH]c2cccc(Br)c12 [ZINC000289897491] | 51 |
| CS[C@@H]1CCN(Cc2cnc(C)n2-c2ccccc2)C1 [ZINC000295103757] | 114 |
| CS[C@H]1CCN([C@H](C)c2nc(-c3ccccc3C)no2)C1 [ZINC000296435291] | 106 |
| C[C@H](COc1ccc(Cl)c(Cl)c1)N[C@@H](C)Cn1cncn1 [ZINC000296612417] | 59.2 |
| CN(CCCN(C)C(=O)C(=O)N(CCO)C1CC1)Cc1ccco1 [ZINC000297448741] | 105 |
| O=C(CN1CCC(c2nc3cc(Cl)ccc3o2)CC1)N1CCC1 [ZINC000298791523] | 89 |
| c1ccc(SC[C@@H]2CCN(c3cc(N4CCCCC4)ncn3)C2)cc1 [ZINC000301468116] | 88.5 |
| CC(C)CC(=O)N[C@@H](C(=O)N1CCC[C@H](N2CCCC2)C1)c1ccccc1 [ZINC000332414923] | 87.2 |
| C[C@H](C(=O)NCC1CCCCC1)N1CCC[C@H](N2CCCC2=O)CC1 [ZINC000334024070] | 111 |

| Structure (SMILES) | remaining activity at 1 µM [%] |
| --- | --- |
| O=C1NCCC[C@@H]1N1CC[C@@H](c2cccc(Cl)c2)C1 [ZINC000336580930] | 60.9 |
| C[C@H]1CN(CCN(C)C(=O)C(=O)NC2CCN(C)CC2)C[C@H](C)O1 [ZINC000339640280] | 106 |
| Cc1ccncc1N1CCN(C[C@H](O)CN2C[C@@H](C)O[C@H](C)C2)CC1 [ZINC000340106708] | 50 |
| Cc1cnc(CN[C@@H](CO)CCC(C)(C)C)n1C [ZINC000341348768] | 103 |
| COCCN1CCC(NC(=O)C(=O)N[C@H]2CCOC(C)(C)C2)CC1 [ZINC000343016571] | 118 |
| C[C@@H]1OCC[C@]1(C)NC(=O)CCc1nc2c(O)nc(=O)n(C)c2[nH]1 [ZINC000345525893] | 90.8 |
| CC[C@H](NC(=O)C(=O)N(CC)CCCN1CCCC1)[C@@H]1CCCO1 [ZINC000345970626] | 71.7 |
| COC(=O)[C@@H]1CCN([C@H](C)C(=O)NCc2ccccc2C)[C@@H]1C [ZINC000347007006] | 108 |
| CN(C/C=C\c1ccc(F)c(F)c1)[C@@H]1COC[C@@H]1O [ZINC000348635286] | 105 |
| C[C@@H]1CCN2C(=O)N(CCCN3CCC[C@@H](C(N)=O)C3)C(=O)[C@H]2C1 [ZINC000349353698] | 142 |
| N#Cc1ccc(N2CCN(C[C@H](O)CC3CCCC3)CC2)c(F)c1 [ZINC000352856249] | 43 |
| Cc1cc(CN2CC[C@H]2Cc2ccccc2)ccc1-n1cncn1 [ZINC000353995714] | 13.2 |
| CN1CC[C@](O)(CNC(=O)c2cc3cc([N+](=O)[O-])ccc3s2)C1 [ZINC000358051108] | 102 |
| CN1CC[C@](O)(CNC(=O)c2ccc([N+](=O)[O-])c3cccnc23)C1 [ZINC000358062278] | 102 |
| CCc1ccnc(CNC(=O)C(=O)N[C@@H]2C[C@H](C)N(C3CC3)C2)c1 [ZINC000358071102] | 113 |
| Cc1ccc([C@H](NC[C@@]2(O)CCN(C)C2)c2ccccc2)cc1 [ZINC000358253868] | 52.1 |
| CC(C)N1C[C@H](NC(=O)c2ccn(Cc3ccccc3)c2)[C@@H](C)C1 [ZINC000359009035] | 99.8 |
| Cc1nc2n(n1)CCN(C(=O)C(=O)N[C@@H]1CCO[C@@H](CC(C)C)C1)C2 [ZINC000361132106] | 76.4 |
| CCO[C@@H](CC(=O)N1CCCN(C2CCCC2)CC1)C1=CCCC1 [ZINC000362611503] | 27.8 |
| CC(C)N1CCN([C@H]2CCN(C(=O)CC3(O)CCCCC3)C2)CC1 [ZINC000363920872] | 88.9 |
| CN1CC[C@]2(CCN(C(=O)CN3C(=O)NC4(CCCC4)C3=O)C2)C1 [ZINC000366544782] | 110 |
| Cc1ccccc1Cc1nnc(CN2C[C@@H](N3CCCC3)C[C@H]2C)o1 [ZINC000367601434] | 90.8 |
| CN1CCO[C@@H](CN(Cc2cnc(-c3cnn(C)c3)nc2)CC2CC2)C1 [ZINC000369129048] | 120 |

Other lines, results leading:

| remaining activity at 1 µM [%] | Structure (SMILES) |
| --- | --- |
| 112 | N#CC1(c2ccccn2)CCN([C@@H]2Cc3ccccc3[C@@H]2O)CC1 [ZINC000369205980] |
| 82.1 | O=C1CCCCN1[C@@H]1CCCN(Cc2cc(-c3ccccc3)no2)C1 [ZINC000370893072] |
| 98.9 | CN1CCC(C(=O)N2CCC[C@@H](c3nc4ccc(F)cc4o3)C2)CC1 [ZINC000370933962] |
| 5.8 | Cc1cc(C)cc(NC(=O)[C@H](C)N2CC[C@@H](C3CCOCC3)C2)c1 [ZINC000374368469] |
| 48.7 | C[C@@H](CO)N1CCCN([C@@H](C)C(=O)Nc2cccc(Cl)c2Cl)CC1 [ZINC000375486080] |
| 84 | CC[C@H](c1ccccc1)N1CCC(C#N)(c2ccccn2)CC1 [ZINC000376738332] |
| 100 | CS[C@H](CO)[C@@H](C)NC(=O)N[C@@H]1CCN(C2CCN(C)CC2)C1 [ZINC000377772869] |
| 95.3 | NC(=O)c1ccccc1N1CC[C@H](NC(=O)CC2CCNCC2)C1 [ZINC000378210510] |
| 54.1 | C[C@H](N[C@@H]1CCCc2c1[nH]c1ccccc21)[C@H]1CCCOC1 [ZINC000389015736] |
| 14.6 | COc1ccc2cc(CN[C@](C)(CO)C(C)C)ccc2c1 [ZINC000398583627] |
| 80.8 | CCc1cc(NC(=O)[C@@H]2CC[C@H](C3CC3)N2)ccc1C [ZINC000407281203] |
| 120 | O=C(NC1CC1)C(=O)N1CCN(S(=O)(=O)C[C@@H]2CCCO2)CC1 [ZINC000407973885] |
| 110 | O=C(c1cncc(N2CCOCC2)c1)N1CCN2C(=O)NC[C@@H]2C1 [ZINC000408001865] |
| 103 | CN(Cc1cc(F)cc(F)c1)C(=O)C(=O)N1CC[C@H](N2CC=CC2)C1 [ZINC000410783840] |
| 88.6 | C[C@H](C(=O)NCc1ccc(F)cc1)N1C[C@H]2C[C@@H](O)CC[C@H]2C1 [ZINC000412048402] |
| 62.9 | CC1CCN(C[C@H](O)CNc2nccc3ccc([N+](=O)[O-])cc23)CC1 [ZINC000413145325] |

| remaining activity at 1 µM [%] | Structure (SMILES) |
| --- | --- |
| 73.8 | O=C(NC[C@H]1CCCN1)Nc1cc(F)cc(F)c1Br [ZINC000415549177] |
| 72.3 | Cc1cc([N+](=O)[O-])cc(C)c1S(=O)(=O)NC[C@H]1CCN(C)C1 [ZINC000416493836] |
| 127 | C[C@H](N)[C@@H]1CCCCN1C(=O)NCc1cn2ccccc2n1 [ZINC000416873685] |
| 96.2 | CC(C)(C(=O)N[C@@H]1CCCc2cc(N)ccc21)[C@H](N)c1ccccc1 [ZINC000417806012] |
| 64.9 | Cc1cccc(C)c1OC[C@H](C)NC(=O)C(=O)NC[C@@H]1CCCNC1 [ZINC000418924570] |
| 82.5 | CN(Cc1ccccc1)C(=O)CNC(=O)C(=O)N[C@H]1CCCNC1 [ZINC000419445843] |
| 95.7 | CC[C@H]1CN(C(=O)C(=O)NCCCN2CCNCC2)CCS1 [ZINC000419873354] |
| 94.1 | NC[C@@H](NC(=O)C(=O)NCCN1CCSCC1)C1CCCC1 [ZINC000420063417] |
| 77.9 | CC(C)Sc1c(Cl)cccc1NC(=O)C(=O)N(C)C[C@H]1CCCN1C [ZINC000421295130] |
| 96.4 | COc1ccc(Oc2ccc([N+](=O)[O-])cc2C(=O)N(C)C[C@H]2CCCN2C)cc1 [ZINC000421699823] |
| 76.1 | CCC[C@@H](C(=O)N(C)C[C@H]1CCCN1C)c1ccccc1 [ZINC000421701270] |
| 94.6 | CC(C)CSc1ccc([N+](=O)[O-])cc1C(=O)N(C)C[C@H]1CCCN1C [ZINC000421710394] |
| 81.8 | CC(C)Sc1ccc([N+](=O)[O-])cc1C(=O)N(C)C[C@H]1CCCN1C [ZINC000421710406] |
| 129 | COC(=O)[C@@]1(C)CCCN(C(=O)C(=O)N[C@@H](C)Cc2ccncc2)C1 [ZINC000422349618] |
| 95.6 | C[C@H](c1ccccc1Br)N(C)C(=O)C[C@@H]1CCCN1 [ZINC000423867812] |
| 36.3 | O[C@H](COC(c1ccccc1)c1ccccc1)CN1CC[C@@H]2CCC[C@H]21 [ZINC000426471156] |
